Results reported in US4518581A, “Imparting low- or anti-cariogenic property to orally-usable products” (Kabushiki Kaisha Hayashibara Seibutsu Kagaku Kenkyujo, priority 1981, dated 1985).

Assays:
[1] = biological target: T1, water-insoluble glucan producing enzyme (Streptococcus downei, UniProt P27470); assay: Effect of saccharides on formation of water-insoluble glucan from sucrose (Experiment 3); assay type: biochemical, Streptococcus mutans 6715 strain; details: 1 ml 4 w/v % sucrose plus 1 ml 4 w/v % saccharide, 0.02 units enzyme, 37° C., 16 hours; for A: amounts of water-insoluble glucan formed: sucrose control 300
T1 construct: endogenous in cells; host or cells: Streptococcus mutans 6715 strain (today S. sobrinus), culture supernatant, ammonium sulfate precipitate, dialyzed
Protocol: After completion of the cultivation, the culture was separated into cell precipitant and supernatant. Thereafter, to the supernatant was added with ammonium sulfate to give 60% saturation, and the resultant precipitant was dialyzed against 0.1M phosphate buffer (pH 7.2) to obtain an aqueous solution containing the enzyme.
The titers of the enzyme were assayed as follows: A mixture solution, consisting of 1 ml of 0.2M aqueous sucrose solution, 1 ml of water, 1 ml of 0.1M phosphate buffer containing 0.05 w/v % NaN3, and 0.5 ml of the enzyme solution (below 0.05 units), is incubated at 37° C. for 9 hours, followed by centrifugation of the reaction mixture. The resultant precipitant is mixed with 4 ml of 0.5N sodium hydroxide solution, and then incubated at this temperature for an additional one hour to dissolve the precipitant. The amount of water-insoluble glucan formed during the enzymatic reaction is then measured. One unit of the enzyme is defined as the amount of enzyme that transfers 1 μmole glucose from sucrose to the water-insoluble glucan in one minute.
Effects of some saccharides on the formation of water-insoluble glucan were tested: Water-insoluble glucan formation and inhibition thereof were determined according to the enzyme assay method as described in EXPERIMENT 1, except that the mixture solution contained sucrose, or sucrose and each saccharide as listed in TABLE I. The experiment was carried out as follows: A mixture solution, consisting of 1 ml of 4 w/v % aqueous sucrose solution, 1 ml of 4 w/v % aqueous solution of each saccharide as listed in TABLE I, 1.5 ml of 0.1M phosphate buffer containing 0.05 w/v % NaN3, and 0.5 ml of the enzyme solution (0.02 units), was incubated at 37° C. for 16 hours, and the water-insoluble glucan formation in the reaction mixture was determined according to the enzyme assy method.
In a control experiment, 1 ml of the above described saccharide solution was replaced with the same amount of water.
The inhibition degree was calculated with following equation:
Inhibition degree (%)=100-A/B×100
where A and B are respective amounts of the water-insoluble glucan formed (μg/ml) when the mixture solution contained sucrose or sucrose and each of the saccharides.

[2] = test system: Streptococcus mutans 6715 strain; assay: Organic acid formation from saccharides by Streptococcus mutans cells, pH-measurement (Experiment 4); assay type: cell-based; details: 37° C., 30 minutes; for pH-Level of the reaction mixture (organic acid formation): cell suspension, Stephan's buffer (pH 7.0), saccharide solution; for organic acid formation from the saccharide: Streptococcus mutans 6715 cells
Protocol: Organic acid formation from some saccharides by Streptococcus mutans was tested: Streptococcus mutans 6715 strain was cultivaed similarly as in EXPERIMENT 1, and the cells, obtained by centrifuging the culture, were washed with 0.9 w/v % sodium chloride solution, followed by additional centrifugation. Two ml of a mixture solution, consisting of 0.2 ml of the cell suspension, prepared from about 100 ml of the culture, 1.5 ml of Stephan's buffer, and 0.3 ml aqueous solution of each saccharide as listed in TABLE II, was incubated at 37° C. for 30 minutes, followed by pH-measurement of the reaction mixture. The Stephan's buffer was prepared by the method as reported by R. M. Stephan et al., Journal of Dental Research, Vol.26, pp.15-41 (1947): One ml of Solution I, prepared by dissolving 17.89 g Na2 HPO4. 12H2 O, 7.92 g KOH and 6.81 g KH2 PO4 in water to give a final volume of 100 ml, was placed in a 100-ml volumetric flask, and mixed with about 90 ml of water. To the flask was added 1 ml of Solution II, prepared by dissolving 4.54 g KH2 PO4, 0.32 g MgSO4.7H2 O, 0.57 g CaSO4.2H2 O and 10 ml of 3.5% hydrochloric acid solution in water to give a final volume of 100 ml. This mixture was diluted with additional water to obtain 100 ml of Stephan's buffer (pH 7.0).
The results are given in TABLE II, wherein the organic acid formation from the saccharides can be estimated by the pH-values.

T1 sequence (P27470 39-1592): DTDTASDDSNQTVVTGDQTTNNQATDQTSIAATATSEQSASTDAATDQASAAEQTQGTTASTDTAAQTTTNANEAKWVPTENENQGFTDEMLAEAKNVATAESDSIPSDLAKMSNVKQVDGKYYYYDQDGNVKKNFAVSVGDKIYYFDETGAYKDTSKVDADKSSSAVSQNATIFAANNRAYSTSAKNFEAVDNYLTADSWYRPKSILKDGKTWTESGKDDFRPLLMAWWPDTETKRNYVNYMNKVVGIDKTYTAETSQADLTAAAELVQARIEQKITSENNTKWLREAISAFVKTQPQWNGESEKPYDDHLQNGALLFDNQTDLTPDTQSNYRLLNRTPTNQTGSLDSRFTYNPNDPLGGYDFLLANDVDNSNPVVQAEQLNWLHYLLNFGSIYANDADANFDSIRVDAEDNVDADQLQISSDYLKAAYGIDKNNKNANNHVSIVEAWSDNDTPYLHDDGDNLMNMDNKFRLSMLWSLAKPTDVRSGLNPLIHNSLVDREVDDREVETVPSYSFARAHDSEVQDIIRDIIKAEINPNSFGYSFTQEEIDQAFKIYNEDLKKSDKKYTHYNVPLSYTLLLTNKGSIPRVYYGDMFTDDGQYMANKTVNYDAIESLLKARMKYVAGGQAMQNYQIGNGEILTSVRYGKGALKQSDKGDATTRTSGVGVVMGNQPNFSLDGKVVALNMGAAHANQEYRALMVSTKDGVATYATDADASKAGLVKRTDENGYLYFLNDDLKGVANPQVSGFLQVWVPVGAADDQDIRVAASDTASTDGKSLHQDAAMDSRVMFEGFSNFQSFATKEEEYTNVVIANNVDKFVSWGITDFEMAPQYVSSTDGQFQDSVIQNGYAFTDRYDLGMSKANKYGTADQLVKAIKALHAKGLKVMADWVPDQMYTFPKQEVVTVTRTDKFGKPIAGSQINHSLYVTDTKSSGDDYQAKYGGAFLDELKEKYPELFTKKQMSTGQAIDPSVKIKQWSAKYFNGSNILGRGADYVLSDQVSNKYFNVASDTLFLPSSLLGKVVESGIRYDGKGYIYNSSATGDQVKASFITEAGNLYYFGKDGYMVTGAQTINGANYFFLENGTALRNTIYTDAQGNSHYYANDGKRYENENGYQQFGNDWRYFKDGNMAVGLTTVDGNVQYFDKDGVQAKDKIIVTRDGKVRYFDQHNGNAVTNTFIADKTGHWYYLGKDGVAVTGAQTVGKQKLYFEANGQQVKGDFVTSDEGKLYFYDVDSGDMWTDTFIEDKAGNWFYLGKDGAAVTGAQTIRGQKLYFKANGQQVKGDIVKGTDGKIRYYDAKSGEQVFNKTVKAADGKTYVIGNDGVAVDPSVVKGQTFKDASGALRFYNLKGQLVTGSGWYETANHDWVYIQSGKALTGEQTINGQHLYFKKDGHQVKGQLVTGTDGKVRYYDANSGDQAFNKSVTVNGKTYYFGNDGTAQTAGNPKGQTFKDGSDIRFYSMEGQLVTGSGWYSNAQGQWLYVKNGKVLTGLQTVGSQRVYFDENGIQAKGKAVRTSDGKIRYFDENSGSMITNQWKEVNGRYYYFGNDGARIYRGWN

Which “B: inhibition degree on water-insoluble glucan formation” value (“B: inhibition degree” below) [1] does the source give for `OC[C@H]1O[C@@H](O[C@@H]2[C@@H](CO)OC(O)(CO)[C@H]2O)[C@H](O)[C@@H](O)[C@H]1O` (mixture of isomers) [Lactulose] here?
The value was 12%.

What about the “A: amounts of water-insoluble glucan formed” value (“A: amounts” below) [1] of the same compound?
The value was 264 µg/mL.

And the “pH-Level of the reaction mixture (organic acid formation)” value (from here on “pH-Level of the reaction mixture”) [2]?
Its value is 7.0.

What does the source list for `OC[C@H]1OC(O)C[C@@H](O)[C@@H]1O` (some centres unmarked) [2-Deoxy Glucose]?
B: inhibition degree on water-insoluble glucan formation [1]: 5%; A: amounts of water-insoluble glucan formed [1]: 285 µg/mL; pH-Level of the reaction mixture (organic acid formation) [2]: 7.0

How did the “B: inhibition degree” value [1] turn out when `OC[C@H]1O[C@@](CO)(OC[C@H]2O[C@@](CO)(O[C@H]3O[C@H](CO)[C@@H](O)[C@H](O)[C@H]3O)[C@@H](O)[C@@H]2O)[C@@H](O)[C@@H]1O` [6-Kestose] was run?
The value was 3%.

What about the “A: amounts” value [1] of the same compound?
Its value is 291 µg/mL.

What about the “pH-Level of the reaction mixture” value [2] of the same compound?
The value was 6.8.

How did the “pH-Level of the reaction mixture” value [2] turn out when `OC[C@H]1O[C@@H](O[C@H]2[C@H](O)[C@@H](O)C(O)O[C@@H]2CO)[C@H](O)[C@@H](O)[C@@H]1O` (some centres unmarked) [Cellobiose] was run?
The value was 7.0.

How did the “pH-Level of the reaction mixture” value [2] turn out when `OC[C@H]1OC(O)[C@H](O)[C@@H](O)[C@H]1O` (stereo partly drawn) [D-Galactose] was run?
The value was 7.0.

Which “pH-Level of the reaction mixture” value [2] does the source give for `OC[C@H]1OC(O)[C@H](O)[C@@H](O)[C@@H]1O` (stereo partly drawn) [D-Glucose] here?
The value was 4.0.

For `OC[C@H]1OC(O)[C@@H](O)[C@@H](O)[C@@H]1O` (stereo partly drawn) [D-Mannose], which “pH-Level of the reaction mixture” value [2] is on record?
Its value is 5.5.

With `OC[C@@H](O)[C@@H](O)CO` [Erythlitol] as the compound, how does the “B: inhibition degree” value [1] read?
The value was 3%.

What about the “A: amounts” value [1] of the same compound?
Its value is 290 µg/mL.

What about the “pH-Level of the reaction mixture” value [2] of the same compound?
The value was 7.0.

Which results are given for `OC[C@H]1O[C@@H](OC[C@H]2OC(O)[C@H](O)[C@@H](O)[C@@H]2O)[C@H](O)[C@@H](O)[C@@H]1O` (some centres unmarked) [Gentiobiose]?
A: amounts of water-insoluble glucan formed [1]: 300 µg/mL; pH-Level of the reaction mixture (organic acid formation) [2]: 7.0

With `OC[C@H](O)[C@@H](O)[C@H](O)[C@H](O)CO[C@H]1O[C@H](CO)[C@@H](O)[C@H](O)[C@H]1O` [Isomaltitol] as the compound, how does the “B: inhibition degree” value [1] read?
The value was 10%.

What about the “A: amounts” value [1] of the same compound?
Its value is 270 µg/mL.

What about the “pH-Level of the reaction mixture” value [2] of the same compound?
Its value is 7.0.

Which results are given for `OC[C@H](O)[C@@H](O)[C@H](O)[C@H](O)CO[C@H]1O[C@H](CO[C@H]2O[C@H](CO[C@H]3O[C@H](CO[C@H]4O[C@H](CO)[C@@H](O)[C@H](O)[C@H]4O)[C@@H](O)[C@H](O)[C@H]3O)[C@@H](O)[C@H](O)[C@H]2O)[C@@H](O)[C@H](O)[C@H]1O` [Isomaltopentaitol, 6^3 -O-α-isomaltosyl isomaltotriitol]?
A: amounts of water-insoluble glucan formed [1]: 66 µg/mL; organic acid formation from the saccharide [2]: no organic acid formation; pH-Level of the reaction mixture (organic acid formation) [2]: 7.0

Which “A: amounts” value [1] does the source give for `OC[C@H]1O[C@H](OC[C@H]2OC(O)[C@H](O)[C@@H](O)[C@@H]2O)[C@H](O)[C@@H](O)[C@@H]1O` (some centres unmarked) [Isomaltose] here?
Its value is 72 µg/mL.

And the “pH-Level of the reaction mixture” value [2]?
Its value is 7.0.

How did the “A: amounts” value [1] turn out when `OC[C@@H](O)[C@@H](O[C@H]1O[C@H](CO)[C@@H](O[C@H]2O[C@H](CO[C@H]3O[C@H](CO)[C@@H](O)[C@H](O)[C@H]3O)[C@@H](O)[C@H](O)[C@H]2O)[C@H](O)[C@H]1O)[C@H](O)[C@@H](O)CO` [Isomaltosyl maltitol, 4^2 -O-α--isomaltosyl maltitol] was run?
Its value is 48 µg/mL.

And the “organic acid formation from the saccharide” value [2]?
The value was “no organic acid formation”.

What about the “pH-Level of the reaction mixture” value [2] of the same compound?
The value was 7.0.

How did the “A: amounts” value [1] turn out when `OC[C@H](O)[C@@H](O)[C@H](O)[C@H](O)CO[C@H]1O[C@H](CO[C@H]2O[C@H](CO[C@H]3O[C@H](CO)[C@@H](O)[C@H](O)[C@H]3O)[C@@H](O)[C@H](O)[C@H]2O)[C@@H](O)[C@H](O)[C@H]1O` [Isomaltotetraitol, 6^2 -O-α-isomaltosyl isomaltitol] was run?
Its value is 45 µg/mL.

And the “organic acid formation from the saccharide” value [2]?
The value was “no organic acid formation”.

And the “pH-Level of the reaction mixture” value [2]?
The value was 7.0.

What does the source list for `OC[C@H](O)[C@@H](O)[C@H](O)[C@H](O)CO[C@H]1O[C@H](CO[C@H]2O[C@H](CO)[C@@H](O)[C@H](O)[C@H]2O)[C@@H](O)[C@H](O)[C@H]1O` [Isomaltotriitol, 6-O-α-isomaltosyl glucitol]?
A: amounts of water-insoluble glucan formed [1]: 60 µg/mL; organic acid formation from the saccharide [2]: no organic acid formation; pH-Level of the reaction mixture (organic acid formation) [2]: 7.0

For `OC[C@H](O)[C@@H](O)[C@H](O)[C@H](O)CO[C@H]1O[C@H](CO)[C@@H](O[C@H]2O[C@H](CO)[C@@H](O)[C@H](O)[C@H]2O)[C@H](O)[C@H]1O` [Isopannitol], which “B: inhibition degree” value [1] is on record?
The value was 10%.

And the “A: amounts” value [1]?
The value was 270 µg/mL.

What about the “pH-Level of the reaction mixture” value [2] of the same compound?
Its value is 7.0.

With `OC[C@H]1O[C@H](O[C@H]2[C@H](O)[C@@H](O)[C@@H](OC[C@H]3OC(O)[C@H](O)[C@@H](O)[C@@H]3O)O[C@@H]2CO)[C@H](O)[C@@H](O)[C@@H]1O` (some centres unmarked) [Isopanose] as the compound, how does the “B: inhibition degree” value [1] read?
Its value is 4%.

What about the “A: amounts” value [1] of the same compound?
The value was 282 µg/mL.

And the “pH-Level of the reaction mixture” value [2]?
The value was 7.0.

How did the “B: inhibition degree” value [1] turn out when `OC1OC[C@H](O)[C@H](O)[C@H]1O` (stereo partly drawn) [L-Arabinose] was run?
Its value is 2%.

And the “A: amounts” value [1]?
The value was 294 µg/mL.

What about the “pH-Level of the reaction mixture” value [2] of the same compound?
Its value is 7.0.

For `O=C(CO)[C@@H](O)[C@H](O)[C@@H](O)CO` [L-Sorbose], which “B: inhibition degree” value [1] is on record?
The value was 13%.

And the “A: amounts” value [1]?
Its value is 261 µg/mL.

And the “pH-Level of the reaction mixture” value [2]?
The value was 7.0.

With `OC[C@@H](O)[C@@H](O[C@@H]1O[C@H](CO)[C@H](O)[C@H](O)[C@H]1O)[C@H](O)[C@@H](O)CO` [Lactitol] as the compound, how does the “pH-Level of the reaction mixture” value [2] read?
Its value is 7.0.

Which “B: inhibition degree” value [1] does the source give for `OC[C@H]1O[C@@](CO)(OC[C@H]2O[C@](O)(CO)[C@@H](O)[C@@H]2O)[C@@H](O)[C@@H]1O` [Levanbiose] here?
The value was 4%.

What about the “A: amounts” value [1] of the same compound?
The value was 288 µg/mL.

And the “pH-Level of the reaction mixture” value [2]?
Its value is 6.5.

How did the “pH-Level of the reaction mixture” value [2] turn out when `OC[C@@H](O)[C@@H](O[C@H]1O[C@H](CO)[C@@H](O)[C@H](O)[C@H]1O)[C@H](O)[C@@H](O)CO` [Maltitol] was run?
The value was 7.0.

Which “B: inhibition degree” value [1] does the source give for `OC[C@@H](O)[C@@H](O[C@H]1O[C@H](CO)[C@@H](O[C@H]2O[C@H](CO)[C@@H](O[C@H]3O[C@H](CO)[C@@H](O[C@H]4O[C@H](CO)[C@@H](O)[C@H](O)[C@H]4O)[C@H](O)[C@H]3O)[C@H](O)[C@H]2O)[C@H](O)[C@H]1O)[C@H](O)[C@@H](O)CO` [Maltopentaitol] here?
Its value is 12%.

And the “A: amounts” value [1]?
Its value is 265 µg/mL.

And the “pH-Level of the reaction mixture” value [2]?
The value was 7.0.

How did the “pH-Level of the reaction mixture” value [2] turn out when `OC[C@H]1O[C@H](O[C@H]2[C@H](O)[C@@H](O)[C@H](O)O[C@@H]2CO)[C@H](O)[C@@H](O)[C@@H]1O` [Maltose] was run?
The value was 4.0.

How did the “B: inhibition degree” value [1] turn out when `OC[C@@H](O)[C@@H](O[C@H]1O[C@H](CO)[C@@H](O[C@H]2O[C@H](CO)[C@@H](O[C@H]3O[C@H](CO)[C@@H](O)[C@H](O)[C@H]3O)[C@H](O)[C@H]2O)[C@H](O)[C@H]1O)[C@H](O)[C@@H](O)CO` [Maltotetraitol] was run?
The value was 21%.

And the “A: amounts” value [1]?
Its value is 236 µg/mL.

For `OC[C@H]1O[C@@](CO)(O[C@H]2O[C@H](CO)[C@@H](O)[C@H](O)[C@H]2O)[C@@H](O)[C@@H]1O` [Sucrose], which “pH-Level of the reaction mixture” value [2] is on record?
The value was 4.0.
